Data: patent publication US10617680B2 (CELGENE QUANTICEL RESEARCH, INC., priority 2017, dated 2020)

Biological target: CBP (Homo sapiens (Human), UniProt Q92793)
Experiment: In vitro CBP inhibition (AlphaScreen, biotinylated H4-tetraacetyl peptide)
Format: binding
Details: AlphaScreen, Table 29; read-out: CBP IC50
Experimental: The CBP-inhibitory activity of the compounds described herein was determined by calculating the IC50. More specifically, CBP inhibitor activity was assayed as follows: CBP was cloned and expressed in E. coli as His-tag protein and purified by Nickel affinity and gel-filtration chromatography. […] CBP binding and inhibition is assessed by monitoring the interaction of biotinylated H4-tetraacetyl peptide (AnaSpec, H4K5/8/12/16(Ac), biotin-labeled) with the target using the AlphaScreen technology (Perkin Elmer). In a 384-well ProxiPlate CBP (50 nM final) was combined with peptide (20 nM final) in 50 mM HEPES (pH 7.3), 10 mM NaCl, 0.25 mM TCEP, 0.1% (w/v) BSA, and 0.005% (w/v) Brij-35 either in the presence of DMSO (final 0.4% DMSO) or compound dilution series in DMSO. After 20 min incubation at room temp, Alpha-streptavidin donor beads and Nickel Chelate acceptor beads were added to a final concentration of 5 μg/mL.
The ability of the compounds disclosed herein to inhibit CBP activity was quantified and the respective IC50 value determined.

Chain of CBP (Q92793 1081-1197): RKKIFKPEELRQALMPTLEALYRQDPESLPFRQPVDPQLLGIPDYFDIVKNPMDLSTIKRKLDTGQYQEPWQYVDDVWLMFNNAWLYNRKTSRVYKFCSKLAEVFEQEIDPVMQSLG

| Molecule | IC50 |
| --- | --- |
| Cn1cc(-c2cnn(-c3ccccc3C#N)c2)c(-c2ccc(F)cc2)cc1=O [Example 215, 2-{4-[4-(4-Fluoro-phenyl)-1-methyl-6-oxo-1,6-dihydro-pyridin-3-yl]-pyrazol-1-yl}-benzonitrile] | < 500 nM |
| CC(=O)NC[C@H]1CCN(c2cc(=O)n(C)cc2-c2cnn(Cc3ccccc3)c2)C1 (stereo in doubt) [Example 90, N-{1-[5-(1-benzyl-1H-pyrazol-4-yl)-1-methyl-2-oxo-1,2-dihydro-pyridin-4-yl]-pyrrolidin-3-yl-methyl}-acetamide] | 500 to 5000 nM |
| Cn1cc(-c2cnn(-c3ccccc3C#N)c2)c(-c2ccc(C(N)=O)cc2)cc1=O [Example 218, 4-{5-[1-(2-Cyano-phenyl)-1H-pyrazol-4-yl]-1-methyl-2-oxo-1,2-dihydro-pyridin-4-yl}-benzamide] | < 500 nM |
| CC(c1ccccc1)n1cc(-c2cn(C)c(=O)cc2OC2CCC2)cn1 (stereo not shown) [Example 49, 4-cyclobutoxy-1-methyl-5-(1-(1-phenylethyl)-1H-pyrazol-4-yl) pyridin-2(1H)-one] | < 500 nM |
| CCc1ccc(-c2cc(=O)n(C)cc2-c2cnn(-c3cccc(Cl)c3C#N)c2)cn1 [Example 371, 2-chloro-6-(4-(6-ethyl-1′-methyl-6′-oxo-1′,6′-dihydro-[3,4′-bipyridin]-3′-yl)-1H-pyrazol-1-yl)benzonitrile] | < 500 nM |
| CC(c1ccccc1)n1cc(-c2cn(C)c(=O)cc2N2CCC2)cn1 (stereo not shown) [Example 40, 4-(azetidin-1-yl)-1-methyl-5-(1-(1-phenylethyl)-1H-pyrazol-4-yl) pyridin-2(1H)-one] | < 500 nM |
| Cn1cc(-c2cnn(-c3cccc(Cl)c3C#N)c2)c(-c2ccc(N3CCCC3)nc2)cc1=O [Example 349, 2-chloro-6-[4-[1-methyl-6-oxo-4-(6-pyrrolidin-1-yl-3-pyridyl)-3-pyridyl]pyrazol-1-yl]benzonitrile] | < 500 nM |
| Cn1cc(-c2cnn(Cc3ccccc3)c2)c(-c2cnn(CC(N)=O)c2)cc1=O [Example 158, 2-(4-(5-(1-benzyl-1H-pyrazol-4-yl)-1-methyl-2-oxo-1,2-dihydro-pyridin-4-yl)-1H-pyrazol-1-yl)acetamide] | < 500 nM |
| Cc1ccccc1C(C)n1cc(-c2ccc(=O)n(C)c2)cn1 (stereo not shown) [Example 22, 1-methyl-5-(1-(1-(o-tolyl)ethyl)-1H-pyrazol-4-yl)pyridin-2(1H)-one] | < 500 nM |
| Cn1cc(-c2cnn(Cc3ccccc3)c2)c(-c2ccncc2)cc1=O [Example 124, 5-(1-benzyl-1H-pyrazol-4-yl)-1-methyl-[4,4′-bipyridin]-2(1H)-one] | < 500 nM |
| COc1ccc(C#N)cc1-n1cc(-c2cn(C)c(=O)cc2-c2ccc(Cl)cc2)cn1 [Example 307, 3-{4-[4-(4-Chloro-phenyl)-1-methyl-6-oxo-1,6-dihydro-pyridin-3-yl]-pyrazol-1-yl}-4-methoxy-benzonitrile] | < 500 nM |
| COc1ccccc1C(C)n1cc(-c2ccc(=O)n(C)c2)cn1 (stereo not shown) [Example 27, 5-(1-(1-(2-methoxy-phenyl)ethyl)-1H-pyrazol-4-yl)-1-methyl-pyridin-2(1H) one] | < 500 nM |
| COc1ccc(C#N)c(-n2cc(-c3cn(C)c(=O)cc3-c3ccnc(OC)c3)cn2)c1 [Example 266, 4-Methoxy-2-[4-(2′-methoxy-1-methyl-6-oxo-1,6-dihydro-[4,4′]bipyridinyl-3-yl)-pyrazol-1-yl]-benzonitrile] | < 500 nM |
| Cc1c(-c2cn(C)c(=O)cc2-c2ccccc2)cnn1C [Example 164, 5-(1,5-dimethyl-1H-pyrazol-4-yl)-1-methyl-4-phenylpyridin-2(1H)-one] | 500 to 5000 nM |
| CCOc1cc(=O)n(C)cc1-c1cnn(-c2cc(OC3CC3)ccc2C(=O)O)c1 [Example 248, 4-Cyclopropoxy-2-[4-(4-ethoxy-1-methyl-6-oxo-1,6-dihydro-pyridin-3-yl)-pyrazol-1-yl]-benzoic acid] | < 500 nM |
| Cn1cc(-c2cnn(Cc3ccccc3)c2)c(OCC#N)cc1=O [Example 167, [5-(1-Benzyl-1H-pyrazol-4-yl)-1-methyl-2-oxo-1,2-dihydro-pyridin-4-yloxy]-acetonitrile] | < 500 nM |
| CCOc1cc(=O)n(C)cc1-c1cnn(-c2c(Cl)cccc2Cl)c1 [Example 98, 5-(1-(2,6-dichlorophenyl)-1H-pyrazol-4-yl)-4-ethoxy-1-methyl-pyridin-2(1H)-one] | < 500 nM |
| CC(C)NC(=O)c1ccn(-c2cc(=O)n(C)cc2-c2cnn(Cc3ccccc3)c2)c1 [Example 82, 1-(5-(1-benzyl-1H-pyrazol-4-yl)-1-methyl-2-oxo-1,2-dihydropyridin-4-yl)-N-isopropyl-1H-pyrrole-3-carboxamide] | < 500 nM |

| Molecule | IC50 |
| --- | --- |
| CCOc1cc(=O)n(C)cc1-c1cnn(Cc2ccc(-c3cn[nH]c3)cc2)c1 [Example 103, 4-ethoxy-1-methyl-5-{1-[4-(1H-pyrazol-4-yl)-benzyl]-1H-pyrazol-4-yl}-1H-pyridin-2-one] | < 500 nM |
| CC(C)COc1cc(=O)n(C)cc1-c1cnn(C(C)c2ccccc2)c1 (stereo not shown) [Example 48, 4-isobutoxy-1-methyl-5-(1-(1-phenylethyl)-1H-pyrazol-4-yl) pyridin-2(1H)-one] | < 500 nM |
| CCOc1cc(=O)n(C)cc1-c1cnn(-c2ccccc2Cl)c1 [Example 97, 5-(1-(2-chloro-phenyl)-1H-pyrazol-4-yl)-4-ethoxy-1-methyl-pyridin-2(1H)-one] | < 500 nM |
| CCNc1ccc(-c2cc(=O)n(C)cc2-c2cnn(-c3cccc(F)c3C#N)c2)cn1 [Example 344, 2-(4-(6-(ethylamino)-1′-methyl-6′-oxo-1′,6′-dihydro-[3,4′-bipyridin]-3′-yl)-1H-pyrazol-1-yl)-6-fluorobenzonitrile] | < 500 nM |
| CCOc1cc(=O)n(C)cc1-c1cnn(Cc2ccc(C)cc2)c1 [Example 65, 4-ethoxy-1-methyl-5-(1-(4-methylbenzyl)-1H-pyrazol-4-yl) pyridin-2(1H)-one] | < 500 nM |
| CCSc1cc(=O)n(C)cc1-c1cnn(Cc2ccccc2)c1 [Example 168, 5-(1-Benzyl-1H-pyrazol-4-yl)-4-ethylsulfanyl-1-methyl-1H-pyridin-2-one] | < 500 nM |
| COc1ccc(C#N)cc1-n1cc(-c2cn(C)c(=O)cc2-c2ccn(C)c(=O)c2)cn1 [Example 305, 3-(4-(1,1′-dimethyl-2′,6-dioxo-1,1′,2′,6-tetrahydro-[4,4′-bipyridin]-3-yl)-1H-pyrazol-1-yl)-4-methoxybenzonitrile] | < 500 nM |
| Cn1cc(-c2cnn(Cc3ccccc3)c2)c(-c2cnn(C(F)F)c2)cc1=O [Example 160, 5-(1-benzyl-1H-pyrazol-4-yl)-4-(1-(difluoromethyl)-1H-pyrazol-4-yl)-1-methylpyridin-2(1H)-one] | < 500 nM |
| Cn1cc(-c2cnn(Cc3ccccc3)c2)c(N2CCOCC2)cc1=O [Example 67, 5-(1-benzyl-1H-pyrazol-4-yl)-1-methyl-4-morpholino-pyridin-2(1H)-one] | < 500 nM |
| CCOC(=O)c1nn(Cc2ccccc2)cc1-c1cc(C)c(=O)n(C)c1 [Example 198, 1-Benzyl-4-(1,5-dimethyl-6-oxo-1,6-dihydro-pyridin-3-yl)-1H-pyrazole-3-carboxylic acid ethyl ester] | < 500 nM |
| CNC(=O)[C@H]1CCN(c2cc(=O)n(C)cc2-c2cnn(Cc3ccccc3)c2)C1 [Example 93, 1-[5-(1-benzyl-1H-pyrazol-4-yl)-1-methyl-2-oxo-1,2-dihydro-pyridin-4-yl]-pyrrolidine-3-methylacetamide] | < 500 nM |
| Cc1ccc(-c2cc(=O)n(C)cc2-c2cnn(-c3ccccc3C(=O)O)c2)cc1 [Example 224, 2-[4-(1-Methyl-6-oxo-4-p-tolyl-1,6-dihydro-pyridin-3-yl)-pyrazol-1-yl]-benzoic acid] | < 500 nM |
| CC(=O)N[C@@H]1CCN(c2cc(=O)n(C)cc2-c2cnn(Cc3ccccc3)c2)C1 [Example 72, (R)-N-(1-(5-(1-benzyl-1H-pyrazol-4-yl)-1-methyl-2-oxo-1,2-dihydropyridin-4-yl)pyrrolidin-3-yl)acctamide] | 500 to 5000 nM |
| Cn1cc(-c2cnn(CC3CC3)c2)c(-n2ccc(C(=O)O)c2)cc1=O [Example 86, 1-(5-(1-(cyclopropylmethyl)-1H-pyrazol-4-yl)-1-methyl-2-oxo-1,2-dihydropyridin-4-yl)-1H-pyrrolc-3-carboxylic acid] | < 500 nM |
| CCOc1cc(=O)n(C)cc1-c1cnn(-c2cccc(C(C)C)c2C#N)c1 [Example 176, 2-[4-(4-Ethoxy-1-methyl-6-oxo-1,6-dihydro-pyridin-3-yl)-pyrazol-1-yl]-6-isopropyl-benzonitrile] | < 500 nM |
| CNc1ncc(-c2cc(=O)n(C)cc2-c2cnn(-c3ccccc3C#N)c2)cn1 [Example 245, 2-(4-(1-methyl-4-(2-(methylamino)pyrimidin-5-yl)-6-oxo-1,6-dihydropyridin-3-yl)-1H-pyrazol-1-yl)benzonitrile] | < 500 nM |
| Cc1nn(C)c(C)c1-c1cn(C)c(=O)cc1-c1ccccc1 [Example 145, 1-methyl-4-phenyl-5-(1,3,5-tri-methyl-1H-pyrazol-4-yl) pyridin-2(1H)-one] | 500 to 5000 nM |
| N-{2-[5-(1-benzyl-1H-pyrazol-4- yl)-1-methyl-2-oxo-1,2-dihydro- pyridin-4-yl]-cyclo- pentyl}-acetamide [Example 88] | < 500 nM |

Same assay, conditions: Table 30; read-out: CRREBBP IC50

| Molecule | IC50 |
| --- | --- |
| Cc1sc2c(c1C)C(c1ccc(Cl)cc1)=N[C@@H](CC(=O)OC(C)(C)C)c1nnc(C)n1-2 [JQ-1, tert-butyl (S)-2-(4-(4-chloro-phenyl)-2,3,9-trimethyl-6H-thieno[3,2-f][1,2,4]triazolo[4,3-a][1,4]diazepin-6-yl)acetate, reference compound] | > 5000 nM |
